Test results reported in the supplement of paper PMC11061612.

What was measured:
CAL-72 (Osteosarcoma) [1] = experiment: combination Emax (second highest fraction inhibited in the dose matrix, 72 h); higher = more inhibition; extreme values may be limits of the assay
Summary of the method: (§1)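 Bliss excess equals the observed combination effect minus the expected value EA + EB − EA·EB, where EA and EB are the effects of each agent alone. Combination Emax is the second-highest inhibition within the matrix. Inhibition was scaled from CellTiter-Glo 2.0 luminescence, with 0 set by vehicle wells and 1 by blank wells, after 72 hours of two-drug dosing of cells plated in 1536-well plates.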

[2] = tested on: SW1710 (Bladder Carcinoma); experiment: as above
Summary of the method: as §1

LOXIMVI (Melanoma) [3] = experiment: as above
Summary of the method: as §1

[4] = tested on: LNZTA3WT4 (Low Grade Glioma); experiment: as above
Summary of the method: as §1

[5] = tested on: WSU-NHL (B-Cell Non-Hodgkin's Lymphoma); experiment: as above
Summary of the method: as §1

[6] = tested on: SNU-16 (Gastric Carcinoma); experiment: as above
Summary of the method: as §1

[7] = tested on: LS-123 (Colorectal Carcinoma); experiment: as above
Summary of the method: as §1

[8] = tested on: KYAE-1 (Esophageal Adenocarcinoma); experiment: as above
Summary of the method: as §1

[9] = tested on: TGBC1TKB (Biliary Tract Carcinoma); experiment: as above
Summary of the method: as §1

[10] = tested on: NCI-H524 (Small Cell Lung Carcinoma); experiment: as above
Summary of the method: as §1

[11] = tested on: YAPC (Pancreatic Carcinoma); experiment: as above
Summary of the method: as §1

GAMG (Glioblastoma) [12] = experiment: as above
Summary of the method: as §1

[13] = tested on: SNU-449 (Hepatocellular Carcinoma); experiment: as above
Summary of the method: as §1

[14] = tested on: BE-13 (T-Lymphoblastic Leukemia); experiment: as above
Summary of the method: as §1

A673 (Ewing's Sarcoma) [15] = experiment: as above
Summary of the method: as §1

MPP-89 (Mesothelioma) [16] = experiment: as above
Summary of the method: as §1

[17] = tested on: ESS-1 (Other Solid Carcinomas); experiment: as above
Summary of the method: as §1

[18] = tested on: HH (T-Cell Non-Hodgkin's Lymphoma); experiment: as above
Summary of the method: as §1

[19] = tested on: OVCAR-5 (Ovarian Carcinoma); experiment: as above
Summary of the method: as §1

KS-1 (Glioblastoma) [20] = experiment: as above
Summary of the method: as §1

EW-11 (Ewing's Sarcoma) [21] = experiment: as above
Summary of the method: as §1

[22] = tested on: SAS (Oral Cavity Carcinoma); experiment: as above
Summary of the method: as §1

[23] = tested on: HuCCT1 (Biliary Tract Carcinoma); experiment: as above
Summary of the method: as §1

CAL-72 (Osteosarcoma) [24] = experiment: Bliss excess, mean over the matrix (fraction); higher = more synergy
Summary of the method: as §1

[25] = tested on: SW1710 (Bladder Carcinoma); experiment: as above
Summary of the method: as §1

LOXIMVI (Melanoma) [26] = experiment: as above
Summary of the method: as §1

[27] = tested on: LNZTA3WT4 (Low Grade Glioma); experiment: as above
Summary of the method: as §1

[28] = tested on: WSU-NHL (B-Cell Non-Hodgkin's Lymphoma); experiment: as above
Summary of the method: as §1

[29] = tested on: SNU-16 (Gastric Carcinoma); experiment: as above
Summary of the method: as §1

[30] = tested on: LS-123 (Colorectal Carcinoma); experiment: as above
Summary of the method: as §1

[31] = tested on: KYAE-1 (Esophageal Adenocarcinoma); experiment: as above
Summary of the method: as §1

[32] = tested on: TGBC1TKB (Biliary Tract Carcinoma); experiment: as above
Summary of the method: as §1

[33] = tested on: NCI-H524 (Small Cell Lung Carcinoma); experiment: as above
Summary of the method: as §1

[34] = tested on: YAPC (Pancreatic Carcinoma); experiment: as above
Summary of the method: as §1

GAMG (Glioblastoma) [35] = experiment: as above
Summary of the method: as §1

[36] = tested on: SNU-449 (Hepatocellular Carcinoma); experiment: as above
Summary of the method: as §1

[37] = tested on: BE-13 (T-Lymphoblastic Leukemia); experiment: as above
Summary of the method: as §1

A673 (Ewing's Sarcoma) [38] = experiment: as above
Summary of the method: as §1

MPP-89 (Mesothelioma) [39] = experiment: as above
Summary of the method: as §1

[40] = tested on: ESS-1 (Other Solid Carcinomas); experiment: as above
Summary of the method: as §1

[41] = tested on: HH (T-Cell Non-Hodgkin's Lymphoma); experiment: as above
Summary of the method: as §1

[42] = tested on: OVCAR-5 (Ovarian Carcinoma); experiment: as above
Summary of the method: as §1

KS-1 (Glioblastoma) [43] = experiment: as above
Summary of the method: as §1

EW-11 (Ewing's Sarcoma) [44] = experiment: as above
Summary of the method: as §1

[45] = tested on: SAS (Oral Cavity Carcinoma); experiment: as above
Summary of the method: as §1

[46] = tested on: HuCCT1 (Biliary Tract Carcinoma); experiment: as above
Summary of the method: as §1

SMILES: Cc1cc2ncnn2cc1Nc1ncc2c(n1)n(C1CCOCC1)c(=O)n2C [AZD7648] + COc1cc([C@@H]2c3cc4c(cc3[C@@H](O[C@@H]3O[C@@H]5CO[C@@H](C)O[C@H]5[C@H](O)[C@H]3O)[C@H]3COC(=O)[C@H]23)OCO4)cc(OC)c1O [Etoposide] (first compound max 10 µM, 7x7, partner max 10 µM)
- combination Emax (CAL-72 (Osteosarcoma) [1]): 0.822
- combination Emax [2]: 0.301
- combination Emax (LOXIMVI (Melanoma) [3]): 0.699
- combination Emax [4]: 0.794
- combination Emax [5]: 1
- combination Emax [6]: 0.794
- combination Emax [7]: 0.884
- combination Emax [8]: 0.547
- combination Emax [9]: 0.326
- combination Emax [10]: 0.617
- combination Emax [11]: 0.531
- combination Emax (GAMG (Glioblastoma) [12]): 0.872
- combination Emax [13]: 0.296
- combination Emax [14]: 0.976
- combination Emax (A673 (Ewing's Sarcoma) [15]): 0.855
- combination Emax (MPP-89 (Mesothelioma) [16]): 0.604
- combination Emax [17]: 1
- combination Emax [18]: 0.141
- combination Emax [19]: 0.546
- combination Emax (KS-1 (Glioblastoma) [20]): 0.431
- combination Emax (EW-11 (Ewing's Sarcoma) [21]): 0.682
- combination Emax [22]: 0.985
- combination Emax [23]: 0.648
- Bliss excess (CAL-72 (Osteosarcoma) [24]): 0.0314
- Bliss excess [25]: -0.0119
- Bliss excess (LOXIMVI (Melanoma) [26]): 0.0988
- Bliss excess [27]: 0.102
- Bliss excess [28]: 0.0848
- Bliss excess [29]: 0.0953
- Bliss excess [30]: 0.0811
- Bliss excess [31]: 0.0032
- Bliss excess [32]: 0.0108
- Bliss excess [33]: 0.101
- Bliss excess [34]: 0.0217
- Bliss excess (GAMG (Glioblastoma) [35]): 0.147
- Bliss excess [36]: 0.0282
- Bliss excess [37]: 0.0881
- Bliss excess (A673 (Ewing's Sarcoma) [38]): 0.111
- Bliss excess (MPP-89 (Mesothelioma) [39]): 0.0858
- Bliss excess [40]: 0.113
- Bliss excess [41]: -0.0254
- Bliss excess [42]: 0.0481
- Bliss excess (KS-1 (Glioblastoma) [43]): 0.0894
- Bliss excess (EW-11 (Ewing's Sarcoma) [44]): 0.0002
- Bliss excess [45]: 0.118
- Bliss excess [46]: 0.0335

SMILES: N#Cc1cnc(Nc2cc(NC[C@H]3CNCCO3)c(C(F)(F)F)cn2)cn1 [SRA737] + O=c1[nH]cc(F)c(=O)[nH]1 [5-Fluorouracil] (first compound max 10 µM, 7x7, partner max 20 µM)
- combination Emax (CAL-72 (Osteosarcoma) [1]): 0.51
- combination Emax [2]: 0.217
- combination Emax (LOXIMVI (Melanoma) [3]): 0.41
- combination Emax [4]: 0.815
- combination Emax [5]: 0.965
- combination Emax [6]: 0.961
- combination Emax [7]: 0.414
- combination Emax [8]: 0.23
- combination Emax [9]: 0.0891
- combination Emax [10]: 0.935
- combination Emax [11]: 0.406
- combination Emax (GAMG (Glioblastoma) [12]): 0.315
- combination Emax [13]: 0.293
- combination Emax [14]: 0.863
- combination Emax (A673 (Ewing's Sarcoma) [15]): 0.402
- combination Emax (MPP-89 (Mesothelioma) [16]): 0.424
- combination Emax [17]: 0.927
- combination Emax [18]: 0.188
- combination Emax [19]: 0.538
- combination Emax (KS-1 (Glioblastoma) [20]): 0.281
- combination Emax (EW-11 (Ewing's Sarcoma) [21]): 0.5
- combination Emax [22]: 0.456
- combination Emax [23]: 0.839
- Bliss excess (CAL-72 (Osteosarcoma) [24]): 0.0294
- Bliss excess [25]: -0.0212
- Bliss excess (LOXIMVI (Melanoma) [26]): -0.0241
- Bliss excess [27]: -0.0325
- Bliss excess [28]: 0.0005
- Bliss excess [29]: 0.0632
- Bliss excess [30]: -0.0135
- Bliss excess [31]: 0.0202
- Bliss excess [32]: -0.0482
- Bliss excess [33]: 0.0593
- Bliss excess [34]: 0.0062
- Bliss excess (GAMG (Glioblastoma) [35]): -0.0226
- Bliss excess [36]: -0.0175
- Bliss excess [37]: -0.0334
- Bliss excess (A673 (Ewing's Sarcoma) [38]): 0.0354
- Bliss excess (MPP-89 (Mesothelioma) [39]): 0.0355
- Bliss excess [40]: -0.0297
- Bliss excess [41]: 0.0123
- Bliss excess [42]: -0.0535
- Bliss excess (KS-1 (Glioblastoma) [43]): -0.0464
- Bliss excess (EW-11 (Ewing's Sarcoma) [44]): -0.0246
- Bliss excess [45]: -0.0104
- Bliss excess [46]: 0.102
